Blank lines part the entries; values can stand above or below the molecule they belong to.
What was measured:
[1] = target: cross-linking of glycated bovine serum albumin (AGE-BSA) to the rat tail tendon collagen (Bos taurus, UniProt P02769); assay: Inhibition of cross-linking of AGE-BSA to rat tail tendon collagen coated plate (ELISA); details: for % Inh.: at 10 mM, PBS pH 7.4, 37° C., 4 hours
Description: The following method was used to evaluate the ability of the compounds of the present invention to inhibit the cross-linking of glycated bovine serum albumin (AGE-BSA) to the rat tail tendon collagen coated 96-well plate.
The glycated BSA was then extensively dialyzed against phosphate buffer solution (PBS) for 48 hours with additional 5 times buffer exchanges. […] The blocking solution was removed from the wells by washing the plate twice with PAS-Tween 20 solution (0.05% Tween 20) using a NUNC-multiprobe or Dynatech ELISA-plate washer. […] The unbrowned BSA in PBS buffer with or without testing compound were added to the separate wells as the blanks. The uncross-linked AGE-BSA was then removed by washing the wells three times with PBS-Tween buffer. The cross-linked AGE-BSA to the tail tendon coated plate was then quantitated by the polyclonal antibody raised against AGE-RNase. After a one-hour incubation period, AGE antibody was removed by washing 4 times with PBS-Tween.
The bound AGE antibody was then detected with the addition of horseradish peroxidase-conjugated secondary antibody, e.g., goat anti-rabbit immunoglobulin and incubation for 30 minutes. […] The reaction was allowed for an additional 15 minutes and the absorbance was read at 410 nm in a Dynatech plate reader.
The % inhibition of each test compound was calculated as follows.

[2] = target: T1, AGE-BSA previously crosslinked to the collagen (Bos taurus, UniProt P02769); assay: Sandwich enzyme immunoassay for breaking of AGE-BSA cross-linked to collagen; assay type: biochemical; details: 10 mM, 16 hours, 37° C.; for % breaking, Pr AbαAGE: primary antibody anti-AGE-RNase; for % breaking, PrAbαBSA: primary antibody anti-BSA
T1 construct: Bovine Serum Albumin (Type V), (BSA) Calbiochem; purchased Calbiochem (BSA, Type V); Collaborative Biomedical Products (Biocoat collagen plates)
T1 sequence (P02769 25-607): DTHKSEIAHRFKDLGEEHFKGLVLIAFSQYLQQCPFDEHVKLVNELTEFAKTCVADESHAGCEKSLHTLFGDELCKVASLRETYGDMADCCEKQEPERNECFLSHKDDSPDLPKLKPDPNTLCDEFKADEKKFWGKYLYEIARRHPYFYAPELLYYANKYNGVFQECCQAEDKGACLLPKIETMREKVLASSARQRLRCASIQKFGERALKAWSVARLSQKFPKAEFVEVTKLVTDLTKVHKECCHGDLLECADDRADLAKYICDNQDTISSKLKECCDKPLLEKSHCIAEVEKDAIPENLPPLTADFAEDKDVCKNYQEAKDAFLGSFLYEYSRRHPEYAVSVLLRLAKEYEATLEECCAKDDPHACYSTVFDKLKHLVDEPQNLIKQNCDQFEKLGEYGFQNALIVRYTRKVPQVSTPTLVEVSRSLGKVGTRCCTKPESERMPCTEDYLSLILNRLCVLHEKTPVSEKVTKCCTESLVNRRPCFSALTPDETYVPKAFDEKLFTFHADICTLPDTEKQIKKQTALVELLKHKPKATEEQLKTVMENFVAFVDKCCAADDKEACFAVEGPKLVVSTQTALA
Description: In order to ascertain the ability of the compounds of the instant invention to “break” or reverse already formed advanced glycosylation endproducts, a novel sandwich enzyme immunoassay was developed which detects breaking of AGE (Advanced glycosylation endproduct) moieties from AGE-crosslinked protein. […] Following an incubation period of 16 hours (37° C.) cross-link-breaking is detected using an antibody raised against AGE-ribonuclease or with an antibody against BSA. […] Details of the assay are as follows:
1. AGE-BSA stock solutions were prepared as follows. Sodium phosphate buffer (0.4 M) was prepared by dissolving 6 grams of monobasic sodium phosphate in 100 ml of distilled water, 7 grams of dibasic sodium phosphate (0.4 M) in 100 ml of distilled water and adjusting the pH of the dibasic solution to 7.4 with the monobasic solution. Sodium azide (0.02 grams) was added per 100 ml volume to inhibit bacterial growth. The BSA solution was prepared as follows: 400 mg of Type V BSA (bovine serum albumin) was added for each ml of sodium phosphate buffer (above). A 400 mM glucose solution was prepared by dissolving 7.2 grams of dextrose in 100 ml of sodium phosphate buffer (above). The BSA and glucose solutions were mixed 1:1 and incubated at 37° C. for 12 weeks. The pH of the incubation mixture was monitored weekly and adjusted to pH 7.4 if necessary. After 12 weeks, the AGE-BSA solution was dialyzed against PBS for 48 hours with four buffer changes, each at a 1:500 ratio of solution to dialysis buffer.
2. Working solutions for crosslinking and breaking studies were prepared as follows. Test compounds were dissolved in PBS and the pH was adjusted to pH 7.4 if necessary. […] The concentration of AGE-BSA necessary to achieve the optimum sensitivity was determined by initial titration of each lot of AGE-BSA.
1. Biocoat plates were blocked with 300 μl of “Superbloc”. Plates were blocked for one hour at room temperature and were washed with PBS-Tween three times with the Dynatech platewasher before addition of test reagents.
2. Each experiment was set up in the following manner. The first three wells of the Biocoat plate were used for the reagent blank. Fifty microliters of solutions AGE-BSA were added to test wells in triplicate and only PBS in blank wells.

[3] = test system: AGE receptor on macrophages (RAW 264.7 cells); assay: Radioligand binding assay for upregulation of the AGE receptor on macrophages; assay type: cell-based; details: iodinated AGE-BSA
Description: To study the effects of test compounds on the upregulation of the AGE receptor on macrophages, the following radioligand binding assay was utilized.
2. One day prior to assay, 1.0 ml of cells are plated per well onto 24 well culture plates at a concentration of 0.75×10^6 cells per ml.
4. […] One ml of the ligand mixture is added to the appropriate wells and the plates are place at 4° C. on a rocking platform for four hours.
6. To each well is added 1.0 ml of 1.0 N sodium hydroxide for fifteen to thirty minutes. The disrupted cells are removed using a cotton tipped swab. After placing the swab in the appropriate tube for gamma counting, the medium remaining in each well is collected and added to the tubes containing the swabs. Each well is washed twice with 0.5 ml of 1.0 N sodium hydroxide which is then added to the appropriate tubes.
7. The samples are counted in an LKB gamma counter and the final numbers are used to determine the percent specific binding as well as the Ka, the Kd and the number of receptors per cell.

[4] = Nordbo 1979; cited from earlier work
[5] = test system: fixed protein (gelatin, i.e., collagen) surface; assay: Surface browning experiment on gelatin/paper disks with glucose-6-phosphate; details: Peridex at final 0.04% chlorhexidine, 100 Mm glucose-6-phosphate, one week at 50° C., pH 7.4
Description: To further study the ability of inhibitors of nonenzymatic browning to prevent the discoloration of protein on a surface, such as that which occurs on the tooth surface, the following surface browning experiment is performed. As a substitute for a pellicle-covered tooth surface, unexposed and developed photographic paper is used to provide a fixed protein (gelatin, i.e., collagen) surface on a paper backing. Five millimeter circles are punched and immersed for one week at 50° C. in a solution of 100 Mm glucose-6-phosphate in a 0.5 M phosphate buffer, pH 7.4, containing 3 Mm sodium azide. Glucose-6-phosphate is a sugar capable of participating in nonenzymatic browning at a more rapid rate than glucose. In addition to the glucose-6-phosphate, chlorhexidine and/or a compound of Formula I are included. After incubation, the gelatin/paper disks are rinsed with water, observed for brown color, and photographed.

[6] = test system: aortic wall protein cross-linking; details: diabetic rats; cited from earlier work
[7] = test system: immunoglobulin trapping in the kidney; details: Brownlee et al. 1986; cited from earlier work
[8] = test system: glomerular basement membrane thickness; details: streptozotocin-diabetic rat model; cited from earlier work
red blood cells = details: in vivo; cited from earlier work

Chain of cross-linking of glycated bovine serum albumin (AGE-BSA) to the rat tail tendon collagen (P02769 25-607): as above

Molecule: Cn1cc[n+](CC(=O)c2ccc(Br)cc2)c1.[Br-] [1-methyl-3-[2-(4′-bromophenyl)-2-oxoethyl]-imidazolium bromide]
% Inh. [1]: 23%

Molecule: 1-methyl-3-[2-(3′-methoxyphenyl)-2-oxoethyl]-imidazolium bromide
% breaking, Pr AbαAGE [2]: 20%
% breaking, PrAbαBSA [2]: 24%
Specific Binding Expressed as % Control, Day 1 [3]: 125%
Specific Binding Expressed as % Control, Day 2 [3]: 132%
Specific Binding Expressed as % Control, Day 3 [3]: 143%
Specific Binding Expressed as % Control, Day 4 [3]: 360%

melting point: 108 to 110 °C
Molecule: Cn1cc[n+](CC(=O)c2ccccc2)c1.[Br-]

Molecule: benzalkonium chloride
Effect on browning reactions in vitro [4]: catalyze browning reactions

Molecule: CCN(CC)c1ccc(C(=O)Cn2cc[n+](C)c2)cc1 [1-Methyl-3-[2-(4′-diethylaminophenyl)-2-oxo-ethyl]-imidazolium bromide]
IC50 ([1]; rat, 4 h, pH 7.4): 1.75 mM
% breaking, Pr AbαAGE [2]: 32%
% breaking, PrAbαBSA [2]: 28%

Molecule: [H]/N=C(\N/C(=N/[H])NCCCCCCNC(=N)NC(=N)Nc1ccc(Cl)cc1)Nc1ccc(Cl)cc1 [chlorhexidine]
Brown color of gelatin/paper disks [5]: significant browning
Effect on browning reactions in vitro [4]: catalyze browning reactions

Molecule: N=C(N)NN [aminoguanidine]
Aortic wall protein cross-linking [6]: diminishes aortic wall protein cross-linking
Immunoglobulin trapping in the kidney [7]: reduction of immunoglobulin trapping in the kidney
Increased glomerular basement membrane thickness [8]: prevented
Diabetes-induced changes in the deformability of red blood cells (red blood cells): prevent it

Molecule: CCOC(=O)CCCCCn1cc[n+](CC(=O)c2cccc(OC)c2)c1.[Br-] [1-(ethoxycarbonylpentyl)-3-[2-(3′-methoxyphenyl)-2-oxoethyl]-imidazolium bromide]
% Inh. [1]: 40%

melting point: 183 to 185 °C
Molecule: Cn1cc[n+](CC(N)=O)c1.[Br-]

Molecule: COc1ccc(C(=O)C[n+]2ccn(C)c2)cc1.[Br-] [1-methyl-3-[2-(4′-methoxyphenyl)-2-oxoethyl]-imidazolium bromide]
% breaking, Pr AbαAGE [2]: 38%
% breaking, PrAbαBSA [2]: 27%
Specific Binding Expressed as % Control, Day 1 [3]: 185%
Specific Binding Expressed as % Control, Day 2 [3]: 132%
Specific Binding Expressed as % Control, Day 3 [3]: 145%
Specific Binding Expressed as % Control, Day 4 [3]: 423%

Source: patent US20040198795A1, “Substituted imidazoliums and methods of use therefor” (priority 1996, published 2004)
